Test results published in paper PMC10016038, “Enhanced Endosomal Signaling and Desensitization of GLP-1R vs GIPR in Pancreatic Beta Cells” (Endocrinology, 2023).

Assays:
GLP-1R-NanoLuc = assay: Rab5-Venus bystander NanoBRET (early endosome), GLP-1R; assay type: cell-based; settings: n = 5
Description: (§1) GLP-1R-NanoLuc was generated in house by polymerase chain reaction (PCR) cloning of the NanoLuciferase sequence from pcDNA3.1-ccdB-NanoLuc (a gift from Prof. Mikko Taipale; Addgene plasmid # 87067) onto the C-terminus end of the SNAP-GLP-1R vector (CisBio), followed by site-directed mutagenesis of the GLP-1R stop codon. GIPR-NanoLuc was subsequently cloned in house by exchanging the GLP-1R for the GIPR in the GLP-1R-NanoLuc construct. KRAS- and Rab5-Venus plasmids were a gift from Prof. Kevin Pfleger, University of Western Australia. The INS-1 832/3 GLP-1R KO and GIPR KO cells were seeded in 12-well plates and co-transfected with 0.2 µg KRAS-Venus and 0.1 µg GLP-1R- or GIPR-NanoLuc, respectively, or 0.5 µg Rab5-Venus and 0.1 µg GLP-1R- or GIPR-NanoLuc, respectively.
(§2) All NanoBiT and NanoBRET readings were obtained in a Flexstation 3 plate reader. Briefly, 24 hours after transfection, cells were detached, resuspended in NanoGlo Live Cell Reagent (Promega) with furimazine (1:20 dilution) and seeded into white 96-well half-area plates. […] Readings were normalized to well baseline and then to average vehicle-induced signal to establish the agonist-induced effect. AUCs from response curves were calculated for each agonist concentration and fitted to four-parameter curves using Prism 9 (GraphPad).
(§3) Figure 2. Endosomal vs plasma membrane localization of GLP-1R compared with GIPR in beta cells. […]

GLP-1R-SmBiT = assay: Mini-G protein/β-arrestin 2 recruitment NanoBiT, GLP-1R; assay type: cell-based; settings: 100 nM GLP-1, 30 minutes, n = 5
Description: (§4) Here the SmBiT was cloned in frame at the C-terminus of the GLP-1R and the GIPR by substitution of the Tango sequence on FLAG-tagged GLP-1R-Tango or GIPR-Tango (a gift from Prof. Bryan Roth, University of North Carolina, USA; Addgene plasmids #66291 and #66294), respectively. Mini-Gs, mini-Gq, and mini-Gi plasmids, tagged at the N-terminus with LgBiT, were a gift from Prof. Nevin Lambert, Medical College of Georgia, USA. For β-arrestin 2 recruitment assays, β-arrestin 2 fused at the N-terminus to LgBiT (LgBiT-β-arrestin 2; Promega, plasmid no. CS1603B118) was chosen as it has previously been used successfully with other class B GPCRs. […]
(§5) All NanoBiT and NanoBRET readings were obtained in a Flexstation 3 plate reader. […] Readings were normalized to well baseline and then to average vehicle-induced signal to establish the agonist-induced effect. AUCs from response curves were calculated for each agonist concentration and fitted to four-parameter curves using Prism 9 (GraphPad).
(§6) Figure 5. […] (A) Kinetics of Gαs, Gαq, Gαi, and β-arrestin 2 recruitment to the GLP-1R assessed by NanoBiT complementation assay in INS-1 832/3 GLP-1R KO cells transiently expressing GLP-1R-SmBiT and the corresponding mini-G protein subtype or β-arrestin 2. […]

SNAP-GLP-1R = assay: Nb37 bystander NanoBiT, plasma membrane (CAAX), GLP-1R; assay type: cell-based, human; settings: 30-minute AUC, n = 4
Description: (§7) The Nb37 assay constructs were kindly provided by Prof. Asuka Inoue, Tohoku University, Japan. Nb37 (gene synthesized by GenScript with codon optimization) was C-terminally fused to SmBiT with a 15 amino acid flexible linker ([…]), and the resulting construct referred to as Nb37-SmBiT. The C-terminal KRAS CAAX motif ([…]) was N-terminally fused with LgBiT (LgBiT-CAAX). The Endofin FYVE domain (amino acid region Gln739-Lys806) was C-terminally fused with LgBiT (Endofin-LgBiT). Gαs (human, short isoform), Gβ1 (human), Gγ2 (human), and RIC8B (human, isoform 2) plasmids were inserted into pcDNA3.1 or pCAGGS expression plasmid vectors. INS-1 832/3 GLP-1R KO or GIPR KO cells were seeded in 6-well plates and co-transfected with 0.1 μg SNAP-GLP-1R or SNAP-GIPR, 0.5 μg Gαs, Gβ1, and Gγ2, 0.1 μg RIC8B, 0.1 μg CAAX-LgBiT or 0.5 μg Endofin-LgBiT with 0.1 μg or 0.5 μg Nb37-SmBiT, respectively, with 0.8 µg pcDNA3.1 added to the former to equalize DNA content.
as §5, with “(GraphPad). […]” for “(GraphPad).”

GIPR-NanoLuc [1] = assay: Rab5-Venus bystander NanoBRET (early endosome), GIPR; assay type: cell-based; settings: n = 5
Description: as §1, §2, §3

GIPR-SmBiT = assay: Mini-G protein/β-arrestin 2 recruitment NanoBiT, GIPR; assay type: cell-based; settings: 100 nM GIP, n = 5
Description: as §4, §5, §6

GIPR-NanoLuc [2] = assay: Mini-Gs-Venus recruitment NanoBRET, GIPR; assay type: cell-based; settings: 100 nM, n = 4
Description: Mini-Gs-Venus was a gift from Prof. Nevin Lambert, Augusta University, USA. INS-1 832/3 GLP-1R KO or GIPR KO cells were seeded in 12-well plates and co-transfected with 0.5 µg mini-Gs-Venus and either 0.5 µg GLP-1R- or GIPR-NanoLuc, respectively.
as §2
Figure 5. Beta cell GLP-1R vs GIPR G protein subtype and β-arrestin 2 recruitment characteristics. (A) Kinetics of Gαs, Gαq, Gαi, and β-arrestin 2 recruitment to the GLP-1R assessed by NanoBiT complementation assay in INS-1 832/3 GLP-1R KO cells transiently expressing GLP-1R-SmBiT and the corresponding mini-G protein subtype or β-arrestin 2. […] (B) Kinetics of Gαs, Gαq, Gαi, and β-arrestin 2 recruitment to the GIPR assessed by NanoBiT complementation assay in INS-1 832/3 GIPR KO cells transiently expressing GIPR-SmBiT and the corresponding mini-G protein subtype or β-arrestin 2. […]

SNAP-GIPR = assay: Nb37 bystander NanoBiT, plasma membrane (CAAX), GIPR; assay type: cell-based, human; settings: 30-minute AUC, n = 4
Description: as §7
as §5, with “(GraphPad). […]” for “(GraphPad).”

Substance | Agonist-mediated redistribution of GLP-1R to Rab5-positive early endosomes (GLP-1R-NanoLuc) | Gαi coupling of GLP-1R (GLP-1R-SmBiT) | Gαs coupling of GLP-1R (GLP-1R-SmBiT) | Recruitment of Nb37 to active GLP-1Rs vs GIPRs within the plasma membrane (SNAP-GLP-1R) | Agonist-mediated redistribution of GIPR to Rab5-positive early endosomes (GIPR-NanoLuc [1]) | GIPR responses for all readouts (Gαs, Gαq, Gαi, β-arrestin 2) compared with GLP-1R (GIPR-SmBiT; 30 minutes) | Gαs recruitment to the GIPR (GIPR-SmBiT) | Gαs recruitment to the GIPR compared to the GLP-1R (GIPR-NanoLuc [2]) | Recruitment of Nb37 to active GIPRs vs GLP-1Rs within the plasma membrane (SNAP-GIPR)
GLP-1(7-36)NH2 | clearly detectable | minimum coupling | preferentially coupled to Gαs | no significant differences | – | – | – | – | –
GIP(1-42) | – | – | – | – | virtually absent | markedly reduced for all readouts | almost as low as those obtained for Gαi | significantly reduced Gαs recruitment | no significant differences
